Data published in patent publication US8022099B2, “N-benzyl pyrrolidine derivatives” (Hoffmann-La Roche Inc., priority 2008, dated 2011).

Tests used:
[1] = target: T1, human NK3 receptor (Homo sapiens, UniProt P29371); experiment: [3H]SR142801 competition binding assay; conditions: hNK3 receptor binding, [3H]SR142801, membranes from HEK293 cells transiently expressing recombinant human NK3 receptor
T1 construct: expressed in transfected cells; host or cells: HEK293 cells (transient expression), membrane preparation
T1 sequence (P29371 1-465): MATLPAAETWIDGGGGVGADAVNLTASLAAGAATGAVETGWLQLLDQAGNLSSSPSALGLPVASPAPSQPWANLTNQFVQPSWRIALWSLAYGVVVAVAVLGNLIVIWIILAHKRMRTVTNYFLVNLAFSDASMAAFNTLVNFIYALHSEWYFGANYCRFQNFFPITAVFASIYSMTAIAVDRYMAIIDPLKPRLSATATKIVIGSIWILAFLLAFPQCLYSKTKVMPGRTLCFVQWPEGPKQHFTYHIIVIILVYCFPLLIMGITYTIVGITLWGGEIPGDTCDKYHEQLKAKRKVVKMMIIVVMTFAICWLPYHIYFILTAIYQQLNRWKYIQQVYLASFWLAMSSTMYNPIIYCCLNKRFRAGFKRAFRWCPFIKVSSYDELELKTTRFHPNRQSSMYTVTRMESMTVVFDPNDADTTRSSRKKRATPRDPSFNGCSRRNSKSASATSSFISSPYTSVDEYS
Summary of the method: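 Membranes from HEK293 cells transiently expressing human NK3 were incubated 75 min at RT with [3H]SR142801 at its KD and inhibitor (0.0003-10 μM) in Tris-HCl pH 7.4/MnCl2/phosphoramidon/BSA. Nonspecific binding used 10 μM SB222200. Ki from Hill-fitted IC50 via Cheng-Prusoff, duplicate determinations.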

[2] = phase II trial, cited from earlier work

Row | Compound | Ki [1] | activity on positive symptoms of schizophrenia ([2]; altered behaviour, delusion, hallucinations, extreme emotions, excited motor activity, incoherent speech) | activity in the treatment of negative symptoms of schizophrenia ([2]; depression, anhedonia, social isolation, memory and attention deficits)
1 | CN(Cc1ccc(C(F)(F)F)c(F)c1)[C@H]1CN(C(=O)C2CCN(C(=O)C3(C)CC3)CC2)C[C@@H]1c1ccc(Cl)c(Cl)c1 (racemic) [Example 149, {(3SR,4RS)-3-(3,4-Dichloro-phenyl)-4-[(3-fluoro-4-trifluoromethyl-benzyl)-methyl-amino]-pyrrolidin-1-yl}-[1-(1-methyl-cyclopropanecarbonyl)-piperidin-4-yl]-methanone] | 3.1 nM |  | 
2 | CN(Cc1ccc(C(F)(F)F)c(F)c1)[C@H]1CN(C(=O)N2CCN(c3ncccc3C#N)CC2)C[C@@H]1c1ccc(Cl)c(Cl)c1 [Example 71, 2-(4-{(3S,4R)-3-(3,4-Dichloro-phenyl)-4-[(3-fluoro-4-trifluoromethyl-benzyl)-methyl-amino]-pyrrolidine-1-carbonyl}-piperazin-1-yl)-nicotinonitrile] | 13.4 nM |  | 
3 | COCCCCC(=O)N1C[C@H](c2ccc(Cl)c(Cl)c2)[C@@H](N(C)Cc2ccc(C(F)(F)F)c(F)c2)C1 [Example 99, 1-{(3S,4R)-3-(3,4-Dichloro-phenyl)-4-[(3-fluoro-4-trifluoromethyl-benzyl)-methyl-amino]-pyrrolidin-1-yl}-5-methoxy-pentan-1-one] | 36.6 nM |  | 
4 | CN(Cc1ccc(C(F)(F)F)c(F)c1)[C@H]1CN(C(=O)CCN2CCOCC2)C[C@@H]1c1ccc(Cl)c(Cl)c1 [Example 110, 1-{(3S,4R)-3-(3,4-Dichloro-phenyl)-4-[(3-fluoro-4-trifluoromethyl-benzyl)-methyl-amino]-pyrrolidin-1-yl}-3-morpholin-4-yl-propan-1-one] | 26.7 nM |  | 
5 | CN(Cc1ccc(C(F)(F)F)c(F)c1)[C@H]1CN(C(=O)CN2CCS(=O)(=O)CC2)C[C@@H]1c1ccc(Cl)c(Cl)c1 [Example 135, 1-{(3S,4R)-3-(3,4-Dichloro-phenyl)-4-[(3-fluoro-4-trifluoromethyl-benzyl)-methyl-amino]-pyrrolidin-1-yl}-2-(1,1-dioxo-λ^6-thiomorpholin-4-yl)-ethanone] | 43.7 nM |  | 
6 | CC(=O)N(C)C1(c2ccccc2)CCN(CCC[C@]2(c3ccc(Cl)c(Cl)c3)CCCN(C(=O)c3ccccc3)C2)CC1 [SR 142,801, Osanetant] |  | active | inactive
